US20250214962A1, “PYRIDINONE DERIVATIVES AS SELECTIVE CYTOTOXIC AGENTS AGAINST HIV INFECTED CELLS” (Merck Sharp & Dohme LLC, priority 2019, published 2025)
pEC50: −log10 of the molar value. Like-named read-outs stand apart in the source and are kept apart here.

Legend:
[1] = system: infected PBMCs (VSV-G pseudotyped HIV virus); experiment: cells; type: cell-based, human; conditions: read-out: SMACK EC50_50% NHS
Viking EC50, 50% NHS = type: cell-based; conditions: method not described, read-out: Viking EC50_50% NHS

| Structure (SMILES) | pEC50 [1] | pEC50 (Viking EC50, 50% NHS) | pEC50 ([1]; Homo sapiens, PBMC) |
| --- | --- | --- | --- |
| CC(F)c1ncn(Cc2ccc(CO)[nH]c2=O)c(=O)c1Oc1cc(Cl)cc(C#N)c1F (single isomer, unassigned) [Example 33, 5-Chloro-2-Fluoro-3-((4-(1-Fluoroethyl)-1-((6-(Hydroxymethyl)-2-Oxo-1,2-Dihydropyridin-3-Yl)Methyl)-6-Oxo-1,6-Dihydropyrimidin-5-Yl)Oxy)Benzonitrile] | 6.41 | 7.64 | – |
| N#Cc1cc(Cl)cc(Oc2c(C(F)(F)F)ncn(Cc3ccc(-c4cn[nH]c4)[nH]c3=O)c2=O)c1 [Example 30, 3-Chloro-5-((6-Oxo-1-((2-Oxo-6-(1H-Pyrazol-4-Yl)-1,2-Dihydropyridin-3-Yl)Methyl)-4-(Trifluoromethyl)-1,6-Dihydropyrimidin-5-Yl)Oxy)Benzonitrile] | – | 7.52 | 6.38 |
| Cc1ccc(Cn2cnc(C(F)(F)C(F)F)c(Oc3cc(F)cc(C#N)c3C)c2=O)c(=O)[nH]1 [Example 9] | – | 7.80 | 6.55 |
| Cc1cc(C)c(Cn2cnc(C(F)(F)C(F)F)c(Oc3cc(Cl)cc(C#N)c3)c2=O)c(=O)[nH]1 [Example 6, 3-chloro-5-((1-((4,6-dimethyl-2-oxo-1,2-dihydropyridin-3-yl)methyl)-6-oxo-4-(1,1,2,2-tetrafluoroethyl)-1,6-dihydropyrimidin-5-yl)oxy)benzonitrile] | – | 7.43 | 6.58 |
| Cc1c(C#N)cc(Cl)cc1Oc1c(C(F)(F)F)ncn(Cc2ccc(-c3cc[nH]n3)[nH]c2=O)c1=O [Example 13, 5-chloro-2-methyl-3-((6-oxo-1-((2-oxo-6-(1H-pyrazol-3-yl)-1,2-dihydropyridin-3-yl)methyl)-4-(trifluoromethyl)-1,6-dihydropyrimidin-5-yl)oxy)benzonitrile] | – | 6.46 | 6.53 |
| Cc1cc(C)c(Cn2cnc(C(C)(F)F)c(Oc3cc(Cl)cc(C#N)c3F)c2=O)c(=O)[nH]1 [Example 2, 5-chloro-3-((4-(1,1-difluoroethyl)-1-((4,6-dimethyl-2-oxo-1,2-dihydropyridin-3-yl)methyl)-6-oxo-1,6-dihydropyrimidin-5-yl)oxy)-2-fluorobenzonitrile] | – | 7.43 | 6.53 |
| Cc1ccc(Cn2cnc(C(F)(F)C(F)(F)F)c(Oc3cc(Cl)cc(C#N)c3F)c2=O)c(=O)[nH]1 [Example 21, 5-Chloro-2-Fluoro-3-((1-((6-Methyl-2-Oxo-1,2-Dihydropyridin-3-Yl)Methyl)-6-Oxo-4-(Perfluoroethyl)-1,6-Dihydropyrimidin-5-Yl)Oxy)Benzonitrile] | – | 7.11 | 6.82 |
| Cc1ccc(Cn2cnc(C(F)(F)C(F)F)c(Oc3cc(Cl)cc(C#N)c3F)c2=O)c(=O)[nH]1 [Example 39, 5-Chloro-2-Fluoro-3-((1-((6-Methyl-2-Oxo-1,2-Dihydropyridin-3-Yl)Methyl)-6-Oxo-4-(1,1,2,2-Tetrafluoroethyl)-1,6-Dihydropyrimidin-5-Yl)Oxy)Benzonitrile] | – | 7.47 | 6.79 |
| Cc1c(C#N)cc(C(F)F)cc1Oc1c(C(F)(F)C(F)F)ncn(Cc2ccc(-c3cn[nH]c3)[nH]c2=O)c1=O [Example 27, 5-(difluoromethyl)-3-((1-((2-hydroxy-6-(1H-pyrazol-4-yl)pyridin-3-yl)methyl)-6-oxo-4-(1,1,2,2-tetrafluoroethyl)-1,6-dihydropyrimidin-5-yl)oxy)-2-methylbenzonitrile] | – | 7.11 | 6.53 |
| Cc1c(C#N)cc(C(F)F)cc1Oc1c(C(F)(F)F)ncn(Cc2ccc[nH]c2=O)c1=O [Example 16, 5-(difluoromethyl)-2-methyl-3-((6-oxo-1-((2-oxo-1,2-dihydropyridin-3-yl)methyl)-4-(trifluoromethyl)-1,6-dihydropyrimidin-5-yl)oxy)benzonitrile] | – | 8.15 | 6.57 |
| Cc1cc(C)c(Cn2cnc(C(F)(F)C(F)F)c(Oc3cc(C(F)F)cc(C#N)c3C)c2=O)c(=O)[nH]1 [Example 5, 5-(difluoromethyl)-3-((1-((4,6-dimethyl-2-oxo-1,2-dihydropyridin-3-yl)methyl)-6-oxo-4-(1,1,2,2-tetrafluoroethyl)-1,6-dihydropyrimidin-5-yl)oxy)-2-methylbenzonitrile] | – | 7.33 | 6.79 |
| Cc1cc(C)c(Cn2cnc(C(F)(F)CF)c(Oc3cc(C(F)F)cc(C#N)c3C)c2=O)c(=O)[nH]1 [Example 41, 5-(difluoromethyl)-3-((1-((4,6-dimethyl-2-oxo-1,2-dihydropyridin-3-yl)methyl)-6-oxo-4-(1,1,2-trifluoroethyl)-1,6-dihydropyrimidin-5-yl)oxy)-2-methylbenzonitrile] | – | 7.22 | 6.55 |
